By IC50 is commonly meant the concentration that gives 50% inhibition.

The assay has as its target T1, Inhibitor of nuclear factor kappa-B kinase subunit beta (Homo sapiens, UniProt O14920).
T1 sequence (O14920 whole entry): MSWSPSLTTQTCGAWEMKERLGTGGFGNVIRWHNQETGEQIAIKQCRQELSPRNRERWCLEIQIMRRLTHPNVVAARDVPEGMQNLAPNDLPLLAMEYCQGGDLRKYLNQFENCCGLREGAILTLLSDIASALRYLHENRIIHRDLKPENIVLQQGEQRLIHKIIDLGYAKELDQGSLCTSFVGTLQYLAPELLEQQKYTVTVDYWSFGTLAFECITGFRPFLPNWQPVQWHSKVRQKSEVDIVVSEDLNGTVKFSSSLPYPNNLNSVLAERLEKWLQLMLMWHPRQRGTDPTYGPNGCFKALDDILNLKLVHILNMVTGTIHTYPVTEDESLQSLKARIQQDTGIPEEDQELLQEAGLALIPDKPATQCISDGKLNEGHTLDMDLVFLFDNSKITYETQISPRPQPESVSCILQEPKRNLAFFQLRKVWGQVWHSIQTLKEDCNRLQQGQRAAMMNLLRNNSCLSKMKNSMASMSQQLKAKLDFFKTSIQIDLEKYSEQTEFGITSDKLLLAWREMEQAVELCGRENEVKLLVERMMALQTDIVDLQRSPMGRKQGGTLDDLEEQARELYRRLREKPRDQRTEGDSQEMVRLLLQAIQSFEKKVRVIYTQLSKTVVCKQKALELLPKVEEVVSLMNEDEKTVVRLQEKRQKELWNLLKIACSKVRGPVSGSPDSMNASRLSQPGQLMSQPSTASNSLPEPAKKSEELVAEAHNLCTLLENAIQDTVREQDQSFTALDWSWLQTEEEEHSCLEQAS
Kind of assay: Inhibition of human recombinant C-terminal FLAG-epitope-tagged IKK2 expressed in baculovirus infected insect cells using biotinylated IkappaBalpha peptide as substrate in presence of [gamma-33P]-ATP after 30 mins by resin-based scintillation counting method.

As to `CC(=O)N1Cc2c(C(N)=O)nn(-c3ccc4c(c3)OCO4)c2-c2cc(NC(=O)c3cccnc3Cl)ccc21`, the 50% inhibitory concentration (IC50) was < 1000 nM.

For `NC(=O)c1nn(-c2ccc3c(c2)OCO3)c2c1COc1ccc(NC(=O)c3cccnc3Cl)cc1-2`, the IC50 is ≤ 1000 nM. Consider `CC(=O)N1Cc2c(C(N)=O)nn(-c3ccc(F)cc3)c2-c2cc(NC(=O)c3cccnc3Cl)ccc21`, for which the IC50 was < 1000 nM.

Values taken from ChEMBL document CHEMBL3879898, “Substituted pyrazolyl compounds for the treatment of inflammationantiinflammatory agents; rheumatic diseases; anticancer agents” (2007).
